Test results: ChEMBL document CHEMBL4308825, “Positive and Negative Allosteric Modulators of N-Methyl-d-aspartate (NMDA) Receptors: Structure-Activity Relationships and Mechanisms of Action” (J Med Chem, 2018)
One block for each molecule: values may come before it.

How the values were obtained:
[1] = molecular target: T1, Glutamate receptor ionotropic, NMDA 2A (Homo sapiens, UniProt Q05586+Q12879); test: Positive allosteric modulation of GluN2A receptor (unknown origin) expressed in xenopus laevis oocytes assessed as increase in glycine-induced channel current by two electrode voltage clamp method; assay type: cell-based
T1 sequence (Q12879 whole entry, one chain of several): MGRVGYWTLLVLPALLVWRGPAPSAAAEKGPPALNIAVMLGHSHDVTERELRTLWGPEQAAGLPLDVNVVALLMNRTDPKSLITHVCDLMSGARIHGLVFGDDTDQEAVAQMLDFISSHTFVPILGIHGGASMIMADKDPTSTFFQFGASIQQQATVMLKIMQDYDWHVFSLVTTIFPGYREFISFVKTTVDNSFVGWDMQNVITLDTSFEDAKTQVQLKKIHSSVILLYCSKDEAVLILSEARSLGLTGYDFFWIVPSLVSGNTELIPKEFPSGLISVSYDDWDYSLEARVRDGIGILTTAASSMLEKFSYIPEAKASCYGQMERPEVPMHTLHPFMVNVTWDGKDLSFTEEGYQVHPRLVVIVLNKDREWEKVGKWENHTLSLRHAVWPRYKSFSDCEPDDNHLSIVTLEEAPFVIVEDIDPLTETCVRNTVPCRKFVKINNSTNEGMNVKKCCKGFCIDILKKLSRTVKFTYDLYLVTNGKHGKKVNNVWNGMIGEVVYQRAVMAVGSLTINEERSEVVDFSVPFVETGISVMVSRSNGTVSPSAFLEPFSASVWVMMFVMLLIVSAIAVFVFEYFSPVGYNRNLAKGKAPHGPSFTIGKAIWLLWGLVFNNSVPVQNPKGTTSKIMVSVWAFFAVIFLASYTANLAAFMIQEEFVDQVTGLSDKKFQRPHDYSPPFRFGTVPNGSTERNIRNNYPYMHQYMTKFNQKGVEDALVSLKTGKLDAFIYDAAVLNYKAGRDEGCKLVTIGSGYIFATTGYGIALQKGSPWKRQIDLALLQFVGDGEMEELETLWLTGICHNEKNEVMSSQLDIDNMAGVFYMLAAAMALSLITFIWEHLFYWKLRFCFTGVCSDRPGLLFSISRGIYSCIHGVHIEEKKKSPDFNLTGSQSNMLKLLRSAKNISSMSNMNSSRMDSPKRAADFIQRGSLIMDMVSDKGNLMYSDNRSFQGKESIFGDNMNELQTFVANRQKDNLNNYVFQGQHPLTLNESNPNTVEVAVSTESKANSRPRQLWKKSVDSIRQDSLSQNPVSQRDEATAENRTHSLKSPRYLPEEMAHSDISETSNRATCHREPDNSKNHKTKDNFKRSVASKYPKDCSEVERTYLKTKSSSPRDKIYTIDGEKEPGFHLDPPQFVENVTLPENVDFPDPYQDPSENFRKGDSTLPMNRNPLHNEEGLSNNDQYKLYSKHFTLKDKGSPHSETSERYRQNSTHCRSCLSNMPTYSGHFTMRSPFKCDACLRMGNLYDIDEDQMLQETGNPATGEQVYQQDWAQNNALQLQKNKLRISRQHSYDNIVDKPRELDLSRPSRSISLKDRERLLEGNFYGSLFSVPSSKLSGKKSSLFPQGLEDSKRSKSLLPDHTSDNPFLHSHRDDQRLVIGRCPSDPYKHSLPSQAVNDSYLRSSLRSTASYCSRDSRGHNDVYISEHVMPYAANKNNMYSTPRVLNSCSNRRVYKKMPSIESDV

[2] = molecular target: T2, Glutamate receptor ionotropic, NMDA 2D (Homo sapiens, UniProt O15399+Q05586); test: Negative allosteric modulation of GluN2D receptor (unknown origin) expressed in xenopus laevis oocytes assessed as reduction in glycine-induced channel current by two electrode voltage clamp method; assay type: cell-based
T2 sequence (O15399 whole entry, one chain of several): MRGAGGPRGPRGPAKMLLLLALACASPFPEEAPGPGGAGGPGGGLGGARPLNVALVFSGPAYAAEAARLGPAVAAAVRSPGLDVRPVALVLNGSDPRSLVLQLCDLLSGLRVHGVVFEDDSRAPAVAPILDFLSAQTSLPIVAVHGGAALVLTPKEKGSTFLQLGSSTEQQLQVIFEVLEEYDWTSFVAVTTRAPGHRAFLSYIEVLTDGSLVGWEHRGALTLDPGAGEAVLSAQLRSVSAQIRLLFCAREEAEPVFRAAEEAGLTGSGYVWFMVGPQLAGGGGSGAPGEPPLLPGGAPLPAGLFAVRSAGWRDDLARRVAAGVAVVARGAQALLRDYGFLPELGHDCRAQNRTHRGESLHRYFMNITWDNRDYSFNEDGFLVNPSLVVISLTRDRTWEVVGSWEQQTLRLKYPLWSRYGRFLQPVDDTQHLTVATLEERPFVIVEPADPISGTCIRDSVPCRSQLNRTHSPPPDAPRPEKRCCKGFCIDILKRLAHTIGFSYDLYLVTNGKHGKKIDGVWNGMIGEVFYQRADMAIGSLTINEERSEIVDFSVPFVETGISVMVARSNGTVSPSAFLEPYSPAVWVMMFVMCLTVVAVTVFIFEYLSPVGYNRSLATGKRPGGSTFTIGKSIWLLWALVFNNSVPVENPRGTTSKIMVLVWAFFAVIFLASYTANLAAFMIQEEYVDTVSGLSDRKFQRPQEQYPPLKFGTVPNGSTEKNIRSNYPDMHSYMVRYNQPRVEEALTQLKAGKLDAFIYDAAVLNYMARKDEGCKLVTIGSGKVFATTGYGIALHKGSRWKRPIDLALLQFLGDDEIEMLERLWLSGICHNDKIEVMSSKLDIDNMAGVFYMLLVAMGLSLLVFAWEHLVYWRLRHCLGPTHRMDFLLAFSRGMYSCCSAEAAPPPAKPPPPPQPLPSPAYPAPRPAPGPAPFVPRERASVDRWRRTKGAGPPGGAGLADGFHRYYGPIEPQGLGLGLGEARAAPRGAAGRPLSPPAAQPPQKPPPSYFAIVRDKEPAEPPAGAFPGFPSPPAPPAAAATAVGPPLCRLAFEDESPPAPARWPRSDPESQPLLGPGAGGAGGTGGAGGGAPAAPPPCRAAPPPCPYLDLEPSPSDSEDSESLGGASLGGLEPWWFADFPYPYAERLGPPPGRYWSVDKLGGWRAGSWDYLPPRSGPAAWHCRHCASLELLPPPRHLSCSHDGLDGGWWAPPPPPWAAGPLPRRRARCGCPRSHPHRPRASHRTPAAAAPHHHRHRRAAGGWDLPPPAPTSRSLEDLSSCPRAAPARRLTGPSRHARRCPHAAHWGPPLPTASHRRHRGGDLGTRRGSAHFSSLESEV

[3] = molecular target: T3, Glutamate receptor ionotropic, NMDA 2C (Homo sapiens, UniProt Q05586+Q14957); test: Negative allosteric modulation of GluN2C receptor (unknown origin) expressed in xenopus laevis oocytes assessed as reduction in glycine-induced channel current by two electrode voltage clamp method; assay type: cell-based
T3 sequence (Q14957 whole entry, one chain of several): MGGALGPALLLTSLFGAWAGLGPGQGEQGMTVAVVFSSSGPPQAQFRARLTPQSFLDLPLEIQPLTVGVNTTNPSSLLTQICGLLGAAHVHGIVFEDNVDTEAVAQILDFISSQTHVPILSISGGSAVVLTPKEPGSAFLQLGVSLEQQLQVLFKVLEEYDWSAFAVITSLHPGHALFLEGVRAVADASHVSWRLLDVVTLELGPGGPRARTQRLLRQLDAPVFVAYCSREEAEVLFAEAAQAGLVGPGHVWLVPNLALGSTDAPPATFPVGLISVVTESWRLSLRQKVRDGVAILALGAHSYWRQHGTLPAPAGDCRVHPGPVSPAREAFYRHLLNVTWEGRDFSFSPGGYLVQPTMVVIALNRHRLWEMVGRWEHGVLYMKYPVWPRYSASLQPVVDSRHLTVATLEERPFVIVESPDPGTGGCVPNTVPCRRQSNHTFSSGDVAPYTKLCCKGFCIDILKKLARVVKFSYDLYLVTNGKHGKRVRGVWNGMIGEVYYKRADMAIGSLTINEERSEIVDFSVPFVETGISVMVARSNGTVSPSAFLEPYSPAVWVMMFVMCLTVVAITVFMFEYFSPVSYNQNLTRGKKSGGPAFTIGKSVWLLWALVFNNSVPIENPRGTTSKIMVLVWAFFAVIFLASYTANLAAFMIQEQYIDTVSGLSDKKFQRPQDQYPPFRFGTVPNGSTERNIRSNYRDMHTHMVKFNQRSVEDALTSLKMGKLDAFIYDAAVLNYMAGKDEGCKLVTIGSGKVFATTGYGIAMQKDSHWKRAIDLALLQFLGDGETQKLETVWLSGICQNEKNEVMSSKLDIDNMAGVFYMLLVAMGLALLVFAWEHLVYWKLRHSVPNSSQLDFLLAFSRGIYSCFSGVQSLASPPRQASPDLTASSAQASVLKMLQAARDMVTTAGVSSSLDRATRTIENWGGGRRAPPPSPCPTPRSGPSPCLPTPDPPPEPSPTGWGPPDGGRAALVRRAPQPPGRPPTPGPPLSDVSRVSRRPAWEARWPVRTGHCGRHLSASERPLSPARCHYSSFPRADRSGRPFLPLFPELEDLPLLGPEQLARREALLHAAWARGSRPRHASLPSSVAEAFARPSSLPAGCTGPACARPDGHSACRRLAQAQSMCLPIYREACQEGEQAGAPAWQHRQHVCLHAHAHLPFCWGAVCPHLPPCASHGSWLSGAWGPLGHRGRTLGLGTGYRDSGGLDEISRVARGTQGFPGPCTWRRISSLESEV

[4] = molecular target: T4, Glutamate receptor ionotropic, NMDA 2B (Homo sapiens, UniProt Q05586+Q13224); test: Negative allosteric modulation of GluN2B receptor (unknown origin) expressed in xenopus laevis oocytes assessed as reduction in glycine-induced channel current by two electrode voltage clamp method; assay type: cell-based
[5] = molecular target: Glutamate receptor ionotropic, NMDA 2B (Rattus norvegicus, UniProt Q00960); test: Positive allosteric modulation of GluN2B receptor in rat spinal cord neurons assessed as increase in glycine-induced channel current by two electrode voltage clamp method
[6] = molecular target: T4, Glutamate receptor ionotropic, NMDA 2B; test: Positive allosteric modulation of GluN2B receptor (unknown origin) expressed in xenopus laevis oocytes assessed as increase in glycine-induced channel current by two electrode voltage clamp method; assay type: cell-based
[7] = molecular target: Glutamate receptor ionotropic, NMDA 2B (Homo sapiens, UniProt Q13224); test: Positive allosteric modulation of GluN2B receptor (unknown origin) in hippocampal neurons assessed as increase in glycine-induced channel current by two electrode voltage clamp method
[8] = molecular target: T1, Glutamate receptor ionotropic, NMDA 2A; test: Negative allosteric modulation of GluN2A receptor (unknown origin) expressed in xenopus laevis oocytes assessed as reduction in glycine-induced channel current by two electrode voltage clamp method; assay type: cell-based
[9] = molecular target: T1, Glutamate receptor ionotropic, NMDA 2A; test: Positive allosteric modulation of EGFP-fused human GluN2A receptor expressed in HEK293T cells assessed as increase in glycine-induced channel current by two electrode voltage clamp method; assay type: cell-based
[10] = molecular target: T3, Glutamate receptor ionotropic, NMDA 2C; test: Positive allosteric modulation of EGFP-fused human GluN2C receptor expressed in HEK293T cells assessed as increase in glycine-induced channel current by two electrode voltage clamp method; assay type: cell-based
[11] = molecular target: T2, Glutamate receptor ionotropic, NMDA 2D; test: Positive allosteric modulation of EGFP-fused human GluN2D receptor expressed in HEK293T cells assessed as increase in glycine-induced channel current by two electrode voltage clamp method; assay type: cell-based
[12] = molecular target: T4, Glutamate receptor ionotropic, NMDA 2B; test: Positive allosteric modulation of EGFP-fused human GluN2B receptor expressed in HEK293T cells assessed as increase in glycine-induced channel current by two electrode voltage clamp method; assay type: cell-based
[13] = molecular target: T3, Glutamate receptor ionotropic, NMDA 2C; test: Positive allosteric modulation of GluN2C receptor (unknown origin) expressed in xenopus laevis oocytes assessed as increase in glycine-induced channel current by two electrode voltage clamp method; assay type: cell-based
[14] = molecular target: T2, Glutamate receptor ionotropic, NMDA 2D; test: Positive allosteric modulation of GluN2D receptor (unknown origin) expressed in xenopus laevis oocytes assessed as increase in glycine-induced channel current by two electrode voltage clamp method; assay type: cell-based
[15] = molecular target: Ionotropic glutamate receptor NMDA 1/2C (Homo sapiens, UniProt Q05586+Q14957); test: Negative allosteric modulation of GluN1a/GluN2C receptor (unknown origin) expressed in xenopus laevis oocytes assessed as reduction in glutamate/glycine-induced channel current at -60 mV holding potential by two electrode voltage clamp method; assay type: cell-based
Chain of Ionotropic glutamate receptor NMDA 1/2C (Q14957 whole entry, other chains not shown): as the sequence (Q14957 whole entry, one chain of several) above

[16] = molecular target: Glutamate NMDA receptor; GRIN1/GRIN2A (Homo sapiens, UniProt Q05586+Q12879); test: Negative allosteric modulation of GluN1a/GluN2A receptor (unknown origin) expressed in xenopus laevis oocytes assessed as reduction in glutamate/glycine-induced channel current at -60 mV holding potential by two electrode voltage clamp method; assay type: cell-based
[17] = molecular target: Glutamate NMDA receptor; GRIN1/GRIN2B (Homo sapiens, UniProt Q05586+Q13224); test: Negative allosteric modulation of GluN1a/GluN2B receptor (unknown origin) expressed in xenopus laevis oocytes assessed as reduction in glutamate/glycine-induced channel current at -60 mV holding potential by two electrode voltage clamp method; assay type: cell-based
[18] = molecular target: Ionotropic glutamate receptor NMDA 1/2D (Homo sapiens, UniProt O15399+Q05586); test: Negative allosteric modulation of GluN1a/GluN2D receptor (unknown origin) expressed in xenopus laevis oocytes assessed as reduction in glutamate/glycine-induced channel current at -60 mV holding potential by two electrode voltage clamp method; assay type: cell-based
Chain of Ionotropic glutamate receptor NMDA 1/2D (O15399 whole entry, other chains not shown): as the sequence (O15399 whole entry, one chain of several) above

[19] = molecular target: T1, Glutamate receptor ionotropic, NMDA 2A; test: Positive allosteric modulation of GluN2A receptor (unknown origin) expressed in HEK cell assessed as increase in glycine-induced calcium influx
[20] = molecular target: T2, Glutamate receptor ionotropic, NMDA 2D; test: Negative allosteric modulation of human GluN2D receptor expressed in xenopus laevis oocytes assessed as reduction in 3 uM glycine-induced channel current at -40 mV holding potential by two electrode voltage clamp method; assay type: cell-based
[21] = molecular target: T1, Glutamate receptor ionotropic, NMDA 2A; test: Negative allosteric modulation of human GluN2A receptor expressed in xenopus laevis oocytes assessed as reduction in 3 uM glycine-induced channel current at -40 mV holding potential by two electrode voltage clamp method; assay type: cell-based
[22] = molecular target: T3, Glutamate receptor ionotropic, NMDA 2C; test: Negative allosteric modulation of human GluN2C receptor expressed in xenopus laevis oocytes assessed as reduction in 3 uM glycine-induced channel current at -40 mV holding potential by two electrode voltage clamp method; assay type: cell-based
Homo sapiens [23] = species: Homo sapiens; test: Selectivity ratio of IC50 for GluN2A receptor (unknown origin) expressed in xenopus laevis oocytes to IC50 for GluN2C receptor (unknown origin) expressed in xenopus laevis oocytes; assay type: cell-based
Homo sapiens [24] = species: Homo sapiens; test: Selectivity ratio of IC50 for GluN2B receptor (unknown origin) expressed in xenopus laevis oocytes to IC50 for GluN2C receptor (unknown origin) expressed in xenopus laevis oocytes; assay type: cell-based
Homo sapiens [25] = species: Homo sapiens; test: Selectivity ratio of IC50 for GluN2B receptor (unknown origin) expressed in xenopus laevis oocytes to IC50 for GluN2D receptor (unknown origin) expressed in xenopus laevis oocytes; assay type: cell-based
Homo sapiens [26] = species: Homo sapiens; test: Selectivity ratio of IC50 for GluN2A receptor (unknown origin) expressed in xenopus laevis oocytes to IC50 for GluN2D receptor (unknown origin) expressed in xenopus laevis oocytes; assay type: cell-based
[27] = molecular target: T2, Glutamate receptor ionotropic, NMDA 2D; test: Negative allosteric modulation of human GluN2D receptor expressed in HEK cells assessed as reduction in glycine/glutamate-induced intracellular calcium flux preincubated for 5 mins followed by glycine/glutamate addition by Fluo-4-AM dye based FLIPR assay; assay type: cell-based

IC50 [4]: 0.012 µM
Compound: Cc1nccn1Cc1cc(-c2ccc(F)c(C(F)F)c2)cnn1 [EVT-101 FREE BASE]

EC50 [5]: 81 µM
EC50 [6]: 127 µM
EC50 [7]: 125 µM
Compound: NCCCNCCCCNCCCN [SPERMINE]

EC50 [1]: 8.5 µM
Compound: Cc1sc2nc(COc3ccc(F)cc3)cc(=O)n2c1[C@@H]1C[C@@H]1CO

IC50 [2]: 2.7 µM
IC50 [8]: 78 µM
IC50 [4]: 19 µM
IC50 [3]: 5.4 µM
Compound: O=C(O)CCC(=O)N1N=C(c2c(-c3ccccc3)c3cc(Br)ccc3[nH]c2=O)CC1c1ccc(Br)cc1 (stereo unspecified)

IC50 [2]: 2.4 µM
IC50 [8]: 1.8 µM
IC50 [4]: 2.4 µM
IC50 [3]: 2 µM
Compound: O=C(O)c1cc2cc(-c3ccccc3)ccc2c(Br)c1O

EC50 [1]: > 10 µM
EC50 [6]: > 10 µM
EC50 [13]: 2.7 µM
EC50 [14]: 2.8 µM
Compound: COc1ccc(OCC2c3cc(OC)c(OC)cc3CCN2C(=O)c2cccc(Cl)c2)cc1 (stereo unspecified)

IC50 [2]: 3.9 µM
IC50 [8]: 182 µM
IC50 [4]: 193 µM
IC50 [3]: 7.1 µM
Compound: COc1ccc2nc(/C=C/c3cccc([N+](=O)[O-])c3)n(-c3ccc(C(=O)O)cc3)c(=O)c2c1

IC50 [20]: 75.9 µM
IC50 [21]: 39.5 µM
IC50 [22]: 29.1 µM
Compound: CC(C(O)c1ccc(O)cc1)N1CCC(Cc2ccccc2)CC1 (stereo unspecified) [IFENPRODIL]

IC50 [4]: 113 µM
IC50 [3]: 7 µM
Compound: Cc1ccc2[nH]c(=O)c(C3=NN(C(=O)CCC(=O)O)C(c4ccc(Br)cc4)C3)c(-c3ccccc3)c2c1 (stereo unspecified)

IC50 [8]: 52 µM
IC50 [4]: 0.009 µM
Compound: C[C@@H](CN1CCC(Cc2ccccc2)CC1)[C@@H](O)c1ccc(O)cc1

IC50 [8]: 9.7 µM
EC50 [14]: 10 µM
IC50 [4]: 9.4 µM
IC50 [3]: 15 µM
Compound: O=C(O)c1cc2cccc(O)c2cc1O

The next lines start with the molecule.

Compound: O=C(O)c1ccc2cc(I)c3ccccc3c2c1
EC50 [1]: 100 µM
IC50 [2]: 50 µM
IC50 [3]: 50 µM

Compound: CC(=O)[C@H]1CC[C@H]2[C@@H]3CC=C4C[C@@H](OS(=O)(=O)O)CC[C@]4(C)[C@H]3CC[C@]12C
EC50 [1]: 21 µM
EC50 [9]: 34 µM
EC50 [10]: 83 µM
EC50 [6]: 33 µM
IC50 [2]: 118 µM
EC50 [11]: 78 µM
EC50 [12]: 63 µM
IC50 [3]: 112 µM

Compound: CC(=O)[C@H]1CC[C@H]2[C@@H]3CC[C@@H]4C[C@H](OS(=O)(=O)O)CC[C@]4(C)[C@H]3CC[C@]12C
IC50 [2]: 14 µM
IC50 [8]: 62 µM
IC50 [4]: 38 µM
IC50 [3]: 12 µM

Compound: CC(C)CCCc1ccc2cc(C(=O)O)ccc2c1
EC50 [1]: 28 µM
EC50 [6]: 34 µM
EC50 [13]: 37 µM
EC50 [14]: 29 µM

Compound: O=C(O)c1cc2cc(Br)ccc2oc1=O
IC50 [8]: 18.6 µM
IC50 [15]: 68 µM
IC50 [16]: 19 µM
IC50 [17]: 90 µM
IC50 [18]: 426 µM

Compound: CCCc1nc2[nH]c(C)c(NS(=O)(=O)c3ccc(C4CCCCC4)cc3)c(=O)n2n1
EC50 [1]: 3.2 µM
EC50 [6]: 15.7 µM
EC50 [13]: 6.6 µM
EC50 [14]: 6.7 µM

Compound: CCN(Cc1cc(=O)n2c3c(sc2n1)CCC3)c1ccc(F)cc1
EC50 [19]: 2.43 µM

Compound: COC(=O)c1ccc(C2C(C(C)=O)=C(O)C(=O)N2CCc2c(C)[nH]c3ccccc23)cc1 (stereo unspecified)
EC50 [13]: 13 µM

Compound: CCN(CC)C(=S)Oc1ccc(C(=O)Nc2cccc3ccccc23)cc1
IC50 [2]: 1.4 µM
Ratio IC50 (Homo sapiens [23]): > 400
Ratio IC50 (Homo sapiens [24]): > 400
Ratio IC50 (Homo sapiens [25]): > 400
Ratio IC50 (Homo sapiens [26]): > 400
IC50 [3]: 2.6 µM

Compound: O=C(NNC(=O)c1ccc(CNS(=O)(=O)c2ccc(F)c(Cl)c2)cc1)c1ccccc1
IC50 [20]: > 10 µM
IC50 [27]: > 30 µM
IC50 [22]: > 10 µM
